From US20200360647A1, “Use Of Inhaled Nitric Oxide For The Improvement Of Right And/Or Left Ventricular Function” (Bellerophon Pulse Technologies LLC, priority 2017, published 2020)
Where “and” joins values, the source holds several entries; their conditions need not be identical. Equal entries are not always repeated.

Key:
Assay type in all cases: in vivo, human
[1] = system: subjects with PH-COPD; test: sPAP by echocardiogram during chronic iNO therapy, PH-COPD study
Text: (§1) This study is an open label Phase 1 study of iNO therapy in subjects with PH-COPD (PULSE-COPD-007; NCT03135860). The primary outcome of this study is the change in lobar blood volume at total lung capacity with iNO and the change in lobar blood volume with iNO after 4 weeks of treatment with iNO as measured by HRCT.
(§2) Subjects also had sPAP≥38 mm Hg as measured by echocardiogram, a post-bronchodilatory FEV1/FVC<0.7 and a FEV1<60% predicted. All subjects were at least 40 years old and were current or former smokers with at least 10 pack-years of tobacco cigarette smoking before study entry. All subjects also had been receiving LTOT for at least 3 months for at least 10 hours per day.
(§3) The PH-COPD subjects received pulsed iNO therapy for 4 weeks for at least 12 hours/day. The iNO was administered utilizing a 4,880 ppm NO cylinder concentration.
A further analysis was performed of seven PH-COPD subjects that completed 4 weeks of treatment with iNO at a dose of 30 mcg/kg IBW/hr. […]

[2] = system: subjects with PH-IPF on LTOT; test: sPAP by echocardiogram, acute iNO, PH-IPF study; details: iNO 75 mcg/kg IBW/hr, individual patients (Patient 1, Patient 2)
Text: This study was an exploratory, three-part, clinical study to assess the effect of pulsed iNO on functional pulmonary imaging parameters in subjects with PH-COPD on LTOT (Part 1) PH-IPF on LTOT (Part 2 and Part 3) (IK-7002-COPD-006; NCT02267655). The objective of this exploratory study was to examine the utility of high resolution computed tomography (HRCT) to measure changes in functional respiratory imaging parameters as a function of short term iNO administration using a pulsed NO delivery device in subjects with PH-IPF (Part 2 and Part 3) on LTOT. The primary endpoint in this exploratory study is the change from baseline in lobar blood volume at total lung capacity (TLC) after dosing with pulsed iNO (Part 1), iNO or Placebo (Part 2a) and after 4 weeks iNO treatment (Part 3b) as measured by HRCT. […]
(§4) The 2 subjects enrolled in Part 3a each received three different doses of iNO utilizing NO cylinder concentration (4,880 ppm) at a dose of 5 mcg/kg IBW/hr, 10 mcg/kg IBW/hr and 30 mcg/kg IBW/hr, all with LTOT. For each dose, the change in PAP pressure and the change in cardiac output was evaluated by RHC. […]
During the chronic phase, the vasodilation and the hemodynamics were assessed. […] Both the acute and chronic phases evaluated iNO doses of 30 and 75 mcg/kg IBW/hr.

[3] = system: subjects with PH-COPD; test: Six-minute walk distance (6MWD) during chronic iNO therapy, PH-COPD study; details: iNO 30 mcg/kg IBW/hr, individual subjects #1-#7
Text: as §1, §2, §3
(§5) A further analysis was performed of seven PH-COPD subjects that completed 4 weeks of treatment with iNO at a dose of 30 mcg/kg IBW/hr.

[4] = system: subjects with PH-COPD; test: HRCT blood vessel volume, acute iNO, PH-COPD study (PULSE-COPD-007); details: individual subjects #1-#7
Text: as §1, §2, §3, §5

[5] = system: subjects with PH-COPD; test: TAPSE (RV function) during chronic pulsed iNO therapy, PH-COPD study; design: TAPSE Increase: unit not given beside the values
Text: (§6) Maintenance and/or improvements in RV function can be assessed by many echocardiographic measurements. One such quantitative approach to assess RV function is the measurement of the TAPSE. The TAPSE estimates RV systolic function by measuring the level of systolic excursion of the lateral tricuspid valve annulus towards the apex. An excellent correlation between the TAPSE and RV ejection fraction as assessed by radionuclide angiography has previously been established and the approach appears reproducible and proven to be a strong predictor of prognosis in heart failure. [Reference: Heart. 2006 April; 92(Suppl 1): i19-i26.]
as §1, §2, §3
These subjects were diagnosed with PH-COPD and received 4 weeks of treatment with iNO at a dose of 30 mcg/kg IBW/hr. The results verify the increase in TAPSE which correlates to RV function.

[6] = system: subjects with PH-IPF on LTOT; test: Safety and tolerability of iNO dose, PH-IPF study
Description: The safety endpoints in this study were: • a. Incidence and severity of treatment emergent adverse events (AEs), including those related to device deficiency; • b. Incidence of MetHb levels>7.0%; • c. New symptoms that may be due to rebound PH associated with a temporal acute withdrawal of investigational study drug (i.e., symptoms occurring within 20 minutes of acute withdrawal and including those associated with investigational medical device malfunction or failure): systemic arterial oxygen desaturation, hypoxemia, bradycardia, tachycardia, systemic hypotension, near-syncope, syncope, ventricular fibrillation, and/or cardiac arrest; • d. New or worsening symptoms of left heart failure or pulmonary edema; and • e. Any decrease in systemic oxygenation measured by oxygen saturation of arterial blood by pulse oximetry (SpO2), i.e., hypoxia or oxygen saturation decrease, deemed by the Investigator to be clinically significant.
The initial protocol intended that 4 subjects would be enrolled in Part 2. […] It was decided to temporarily stop recruitment. One of the 2 subjects completed 4 weeks of chronic use in Part 2b.
In the amendment a total of 2 subjects participated in Part 3. The dose in Part 3 was lower than in Part 2 and each subject was titrated to the optimum dose as determined by the investigator. […] The dose was monitored with a RHC in place. […]

[7] = system: subjects with PH-IPF on LTOT; test: HRCT blood vessel volume, acute iNO, PH-IPF study (IK-7002-COPD-006); details: iNO 75 mcg/kg IBW/hr, individual patients (Patient 1, Patient 2)
Text: This study was an exploratory, three-part, clinical study to assess the effect of pulsed iNO on functional pulmonary imaging parameters in subjects with PH-COPD on LTOT (Part 1) PH-IPF on LTOT (Part 2 and Part 3) (IK-7002-COPD-006; NCT02267655). The objective of this exploratory study was to examine the utility of high resolution computed tomography (HRCT) to measure changes in functional respiratory imaging parameters as a function of short term iNO administration using a pulsed NO delivery device in subjects with PH-IPF (Part 2 and Part 3) on LTOT. The primary endpoint in this exploratory study is the change from baseline in lobar blood volume at total lung capacity (TLC) after dosing with pulsed iNO (Part 1), iNO or Placebo (Part 2a) and after 4 weeks iNO treatment (Part 3b) as measured by HRCT.
This was an exploratory clinical study to evaluated the utility of HRCT to measure the pharmacodynamic effects of short term pulsed administration of iNO using a pulsed NO delivery device in subjects with PH-IPF (Part 2 and Part 3) on LTOT. […]
as §4

[8] = system: subjects with PH-IPF on LTOT; test: TAPSE (RV function) during chronic pulsed iNO therapy, PH-IPF study
Text: as §6
The secondary endpoints of Part 2a (acute; placebo vs. iNO 75 mcg/kg IBW/hr) were change in Borg CR10 leg fatigue and dyspnea scale, changes in breathing questionnaire and changes in right ventricular and left ventricular function.
One patient from Part 2a entered into Part 2b. During Part 2b patient receive iNO utilizing NO cylinder concentration (4,880 ppm) at a dose of 75 mcg/kg IBW/hr during 4 weeks for at least 12 hours/day.
The 2 patients from Part 3a entered Part 3b. During Part 3b, patients received iNO utilizing NO cylinder concentration (4,880 ppm) at a dose of 30 mcg/kg IBW/hr.
Subject 1 received pulsed iNO at a dose of 75 mcg/kg IBW/hr for 4 weeks, and Subject 3 received pulsed iNO at a dose of 30 mcg/kg IBW/hr for 4 weeks.

[9] = group value, vs baseline 60.3 mm Hg, p=0.02
[10] = iNO 30 mcg/kg IBW/hr, 4 weeks vs baseline, individual subjects #1-#7
[11] = iNO 30 mcg/kg IBW/hr for 4 weeks, average of four subjects, vs baseline
[12] = iNO 30 mcg/kg IBW/hr for 4 weeks, vs baseline, individual subjects (1, 6, 7, 12)
[13] = PH-IPF Subject 1, pulsed iNO 75 mcg/kg IBW/hr for 4 weeks, vs baseline
[14] = PH-IPF Subject 3, pulsed iNO 30 mcg/kg IBW/hr for 4 weeks, vs baseline
[15] = PH-IPF, average of Subject 1 (75) and Subject 3 (30 mcg/kg IBW/hr), 4 weeks, vs baseline

Compound: [N]=O [iNO, nitric oxide]
- sPAP 4 weeks after iNO therapy was discontinued ([1]; group value (FIG. 6)): 58.0 mm Hg
- sPAP drop after 4 weeks of iNO therapy [1, 9]: 12.0 mm Hg
- sPAP drop after 4 weeks of iNO therapy (%) [1, 9]: 19.9%
- sPAP, 4 weeks iNO ([1]; iNO 30 mcg/kg IBW/hr for 4 weeks, individual subjects #1-#7): 69 mm Hg and 37 mm Hg and 40 mm Hg and 74 mm Hg and 30 mm Hg and 34 mm Hg and 54 mm Hg
- Change sPAP (mm Hg) [1, 10]: −25 mm Hg and −10 mm Hg (2×) and −15 mm Hg and −4 mm Hg and −12 mm Hg and −8 mm Hg
- sPAP % Change [1, 10]: −27% (2×) and −21% and −5% and −25% and −26% and −13%
- Acute Change in sPAP (%) [2]: −9.3% and −9.7%
- 6MWD Change from Baseline, 2 weeks iNO ([3]; 2 weeks vs baseline): +135 meters and +79 meters and +15 meters and +35 meters and +25 meters and +57 meters and +32 meters
- 6MWD, 2 weeks iNO ([3]; 2 weeks): 335 meters and 263 meters and 493 meters and 115 meters and 495 meters and 400 meters and 173 meters
- 6MWD Change from Baseline, 4 weeks iNO ([3]; 4 weeks vs baseline): +135 meters and +11 meters and +2 meters and −3 meters and +28 meters and +80 meters and +100 meters
- 6MWD, 4 weeks iNO ([3]; 4 weeks): 335 meters and 195 meters and 480 meters and 77 meters and 498 meters and 423 meters and 242 meters
- Acute change in Blood Vessel Volume % [4]: 6.2 ± 1.6% and 3.3 ± 2.1% and 6.6 ± 4.5% and 9.7 ± 3.5% and −1.0 ± 4.0% and 2.7 ± 0.4%
- TAPSE after iNO therapy was discontinued ([5]; group value, N=5 (FIG. 7)): 19.0
- TAPSE 4 Week, Average ([5]; iNO 30 mcg/kg IBW/hr for 4 weeks, average of four subjects, baseline 16): 20
- TAPSE % Change, Average [5, 11]: 25%
- TAPSE Increase, Average [5, 11]: 4
- TAPSE 4 Week ([5]; iNO 30 mcg/kg IBW/hr for 4 weeks, individual subjects (1, 6, 7, 12)): 14 and 18 (2×) and 28
- TAPSE % Change [5, 12]: 0% and 67% and 22% and 13%
- TAPSE Increase [5, 12]: 0 and 7 and 5 and 2
- Safety of dose titration monitored with RHC ([6]; 2 PH-IPF subjects of Part 3, titrated 5, 10, 30 mcg/kg IBW/hr): could titrate to iNO at a dose of 30 mcg/kg IBW/hr safely
- PAP after discontinuation of iNO ([6]; two PH-IPF patients of Part 2, iNO 75 mcg/kg IBW/hr): sudden increase in PAP after discontinuation
- Acute change in Blood Vessel Volume % [7]: 14.0 ± 4.7% and 34.2 ± 7.6%
- TAPSE % Change [8, 13]: 21%
- TAPSE Increase [8, 13]: 3
- TAPSE % Change [8, 14]: 12%
- TAPSE Increase [8, 14]: 4
- TAPSE % Change, Average [8, 15]: 15%
- TAPSE Increase, Average [8, 15]: 3
- TAPSE 4 Week, Average ([8]; PH-IPF, average of Subject 1 (75 mcg/kg IBW/hr) and Subject 3 (30 mcg/kg IBW/hr), 4 weeks, baseline 20): 23
